According to patent US10010607B2, “Method for preparing viral particles with cyclic dinucleotide and use of said particles for inducing immune response” (priority 2014, dated 2018):

What was measured:
HEK293 cells = type: cell-based, human; settings: for IFN response in target cells in the presence of inhibitor: HEK293 cells infected with HIV-1-GFP from cGAS expressing cells, inhibitor 5 μM 1 hour prior to infection; for IFN induction by HIV-1-GFP from inhibitor-treated cGAS-reconstituted producer cells: 20 μM GW4869 or 60 μM Ac-DEVD-CHO during virus preparation
IFNβ promoter reporter = type: cell-based, human; settings: HEK293 cells transfected with 2 μg 2′-3′-cGAMP, 24 hours

Row | Compound | IFN response in target cells in the presence of inhibitor (HEK293 cells) | IFN induction by HIV-1-GFP from inhibitor-treated cGAS-reconstituted producer cells (HEK293 cells) | further results
1 | Cc1nnc(C(=O)NC(C)(C)c2nc(C(=O)NCc3ccc(F)cc3)c(O)c(=O)n2C)o1 [raltegravir] | independent |  | 
2 | Cc1ccnc2c1NC(=O)c1cccnc1N2C1CC1 [nevirapine] | independent |  | 
3 | Nc1nc2c(ncn2[C@@H]2O[C@@H]3COP(=O)(O)O[C@H]4[C@@H](O)[C@H](n5cnc6c(N)ncnc65)O[C@@H]4COP(=O)(O)O[C@@H]2[C@@H]3O)c(=O)[nH]1 [cGAMP, 2′-3′-cyclic GMP-AMP] |  |  | IFN induction in response to cGAMP (IFNβ promoter reporter) (IFNβ promoter reporter): induce IFN
4 | Ac-DEVD-CHO |  | did not diminish IFN induction | 
5 | O=C(/C=C/c1ccc(/C=C/C(=O)Nc2ccc(C3=NCCN3)cc2)cc1)Nc1ccc(C2=NCCN2)cc1 [GW4869] |  | did not diminish IFN induction | 
